Test results from ChEMBL document CHEMBL1130582, “Substrate specificity of thermostable farnesyl diphosphate synthase with alkyl group homologs of isopentenyl diphosphate” (1998).

Tests used:
[1] = tested on: Farnesyl diphosphate synthase (Aves); experiment: Relative yield of the product (4b') derived from the compound with GPP in the enzymatic reaction catalyzed by FPP synthase from avian liver
[2] = tested on: Farnesyl diphosphate synthase (Sus scrofa); experiment: Relative yield of the product (4b') derived from the compound with GPP in the enzymatic reaction catalyzed by FPP synthase from porcine liver
[3] = target: T1, Farnesyl diphosphate synthase (Geobacillus stearothermophilus) (UniProt Q08291); experiment: (§1) Relative yield of the product (3b) derived from the compound with DMAPP in the enzymatic reaction catalyzed by FPP synthase from Bacillus stearothermophilus; assay type: functional
T1 sequence (whole entry): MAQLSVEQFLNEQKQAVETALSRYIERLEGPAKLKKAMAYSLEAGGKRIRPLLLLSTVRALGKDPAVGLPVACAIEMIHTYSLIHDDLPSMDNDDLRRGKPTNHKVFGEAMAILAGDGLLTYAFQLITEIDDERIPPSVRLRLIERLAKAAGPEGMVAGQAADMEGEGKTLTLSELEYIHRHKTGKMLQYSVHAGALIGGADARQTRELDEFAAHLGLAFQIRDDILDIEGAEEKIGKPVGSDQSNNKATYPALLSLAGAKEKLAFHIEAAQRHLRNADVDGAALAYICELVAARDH

[4] = tested on: Farnesyl diphosphate synthase (Aves); experiment: Relative yield of the product (3b) derived from the compound with DMAPP in the enzymatic reaction catalyzed by FPP synthase from avian liver
[5] = target: T1, Farnesyl diphosphate synthase (Geobacillus stearothermophilus); experiment: Relative yield of the product (4b) derived from the compound with DMAPP in the enzymatic reaction catalyzed by FPP synthase from Bacillus stearothermophilus; assay type: functional
[6] = target: T1, Farnesyl diphosphate synthase (Geobacillus stearothermophilus); experiment: Relative yield of the product (4b') derived from the compound with GPP in the enzymatic reaction catalyzed by FPP synthase from Bacillus stearothermophilus; assay type: functional
[7] = tested on: Farnesyl diphosphate synthase (Sus scrofa); experiment: Relative yield of the product (4b) derived from the compound with DMAPP in the enzymatic reaction catalyzed by FPP synthase from porcine liver
[8] = tested on: Farnesyl diphosphate synthase (Aves); experiment: Relative yield of the product (4b) derived from the compound with DMAPP in the enzymatic reaction catalyzed by FPP synthase from avian liver
[9] = tested on: Farnesyl diphosphate synthase (Sus scrofa); experiment: Relative yield of the product (3b) derived from the compound with DMAPP in the enzymatic reaction catalyzed by FPP synthase from porcine liver; ND = Not detected
[10] = tested on: Aves; experiment: Relative yield of the product (3b) derived from the compound with DMAPP in the enzymatic reaction catalyzed by FPP synthase from avian liver; ND = Not detected; assay type: functional
[11] = tested on: Geobacillus stearothermophilus; experiment: Relative yield of the product (4d) derived from the compound with GPP in the enzymatic reaction catalyzed by FPP synthase from B. stearothermophilus; ND = Not detected; assay type: functional
[12] = organism: Sus scrofa; experiment: Relative yield of the product (4d) derived from the compound with DMAPP in the enzymatic reaction catalyzed by FPP synthase from porcine liver; ND = Not detected; assay type: functional
[13] = tested on: Aves; experiment: Relative yield of the product (4d) derived from the compound with DMAPP in the enzymatic reaction catalyzed by FPP synthase from avian liver; ND = Not detected; assay type: functional
[14] = tested on: Geobacillus stearothermophilus; experiment: as §1; assay type: functional
[15] = organism: Sus scrofa; experiment: Relative yield of the product (3b) derived from the compound with DMAPP in the enzymatic reaction catalyzed by FPP synthase from porcine liver; ND = Not detected; assay type: functional, organism-based
[16] = tested on: Geobacillus stearothermophilus; experiment: Relative yield of the product (4c) derived from the compound with GPP in the enzymatic reaction catalyzed by FPP synthase from Bacillus stearothermophilus; assay type: functional
[17] = organism: Sus scrofa; experiment: Relative yield of the product (3c) derived from the compound with DMAPP in the enzymatic reaction catalyzed by FPP synthase from porcine liver; assay type: functional
[18] = organism: Sus scrofa; experiment: Relative yield of the product (4c) derived from the compound with GPP in the enzymatic reaction catalyzed by FPP synthase from porcine liver; assay type: functional
[19] = tested on: Aves; experiment: Relative yield of the product (4c) derived from the compound with GPP in the enzymatic reaction catalyzed by FPP synthase from avian liver; ND = Not detected; assay type: functional
[20] = tested on: Aves; experiment: Relative yield of the product (3c) derived from the compound with DMAPP in the enzymatic reaction catalyzed by FPP synthase from avian liver; assay type: functional
[21] = tested on: Geobacillus stearothermophilus; experiment: Relative yield of the product (3c) derived from the compound with DMAPP in the enzymatic reaction catalyzed by FPP synthase from Bacillus stearothermophilus; assay type: functional

C=C(CC)CCOP(=O)(O)OP(=O)(O)O
Production [1]: 25% | Production [2]: 27% | Production [3]: 68% | Production [4]: 1% | Production [5]: 40% | Production [6]: 48% | Production [7]: 10% | Production [8]: 6.7% | Production [9]: Not detected

C=C(CCCC)CCOP(=O)(O)OP(=O)(O)O
Production [10]: Not detected | Production [11]: Not detected | Production [12]: Not detected | Production [13]: Not detected | Production [14]: 4% | Production [15]: Not detected

C=C(CCC)CCOP(=O)(O)OP(=O)(O)O
Production [16]: 10% | Production [17]: 1.4% | Production [18]: 1.8% | Production [19]: Not detected | Production [20]: 1% | Production [21]: 29%
